Laboratory results reported in US6818621B2, “Osteopontin-derived chemotactic and inhibitory agents and uses therefor” (Children's Medical Center Corporation, priority 1999, dated 2004).
Marks after values point to notes of the source that are not given here. Where no end group is shown, it is not given here.

Experiments:
[1] = system: MDA-MB-231 cells; assay: Inhibition of OPN induced chemotaxis in the chemotactic chamber assay; format: cell-based, human; settings: for MI inhibitory: Table 4, 100 nmoles of peptide, cells migrating towards OPN in presence of buffer divided by number migrating towards OPN in presence of peptide
Protocol: (§1) To evaluate the potential of peptide analogues to inhibit OPN induced chemotaxis, 100 nmoles of peptide was added to the lower compartment and the response of these cells to OPN was determined as described. MI(buffer) was calculated by dividing the number of cells migrating in response to peptide by the number of cells migrating in response to buffer. MI(inhibitory) equals the number of cells migrating towards OPN in the presence of buffer divided by the number migrating towards OPN in the presence of peptide.

[2] = system: MDA-MB-231 cells (CD44+ human breast adenocarcinoma cells); assay: Chemotactic chamber (Boyden) assay, migration through polycarbonate filters; format: cell-based; settings: for MI buffer / MI: Table 4; for MI buffer: cells migrating in response to peptide divided by cells migrating in response to buffer; for Migratory Index: Table 3, cells migrating in response to peptide/cells migration in response to LVLDPK; for mean number of migrating cells per six random high powered fields: Table 2; for MI: migratory index; for chemotactic response of MDA-MB231 (in words): p<0.01, 200 ng of bone OPN; for mean number of migrating cells per random high power field: Table 1, 4 hours
Protocol: Each peak was then tested for mediation of chemotaxis or for its ability to inhibit OPN mediated chemotaxis using the chemotactic assay as follows (see e.g., Weber et al. (1996) Science 271:509-512). Briefly, uncoated polycarbonated filters (pore size […] ) were used to separate the upper and lower chambers of chemotactic wells. 1×10^3 MDA-MB-231 cells (CD44^+human breast adenocarcinoma cells) were added to the upper chamber and incubated in the presence or absence of the indicated 50 pmols peptide. After 4 hours, the filters were removed, fixed in methanol arid stained with hematoxylin and eosin. Cells which have responded to the peptide, migrate to various areas of the lower surface and can be counted microscopically. Each data point is reported as the mean number of migrating cells per random high power field.
Peptide 51 was identified as being chemotactic. The peptide was sequenced using a gas-phase sequenator and determined to have the sequence LVLDPK (SEQ ID NO:1). To confirm that chemotaxis was due to this peptide, a 16 amino acid peptide spanning the chemotactic sequence in OPN was synthesized and tested for its chemotactic properties. The resulting peptide, SP64 has the sequence KFHSHKDKLVLDPKSK (SEQ ID NO:2) and containing the chemotactic sequence from residues 9-14. 2×10^4 MDA-MB-231 cells were assayed for chemotactic response to the indicated peptides as described above. Each data point is reported as the mean number of migrating cells per six random high powered fields ± standard error of the mean. Each experiment was repeated four times.
To test the amino acid specificity for chemotactic response several substitutions were created in the chemotactic sequence and the new peptides tested for their ability to induce chemotaxis. Data are expressed as migratory index (cells migrating in response to peptide/cells migration in response to LVLDPK, SEQ ID NO:1).
as §1

[3] = system: cells recruited into the peritoneum; assay: In vivo chemotaxis after injection of peptide into the peritoneal cavity, lavage and flow cytometry; design: species or system C57 black mice; settings: for induction ratio, Total / induction ratio, Total CD44 / induction ratio, B-lymphocytes / induction ratio, T-lymphocytes / induction ratio, Monocytes: 25 nmols i.p., 6 hours, normalized to PBS-injected mouse, average of 6 mice; for induction ratio, B-lymphocytes: B220+; for induction ratio, T-lymphocytes: CD3+; for induction ratio, Monocytes: Mac-1+; for chemotactic activity in vivo (in words): mouse
Protocol: Since the peptide LVLDPK (SEQ ID NO:1) was chemotactic to tumor cells and macrophages in vitro, we tested whether the peptide was chemotactic in vivo. 25 nmols of the peptide were injected into the peritoneal cavity of C57 black mice. After six hours the cells recruited into the peritoneum were recovered by lavage and identified by flow cytometry. Titration of soluble peptides into the peritoneum induces a cellular infiltrate in a dose dependent manner. The induction ratio is the number of cells of a particular lineage recovered from the peritoneum of a peptide-injected mouse (e.g., 6 hours after injection) normalized for each experiment to the number of cells of the same lineage recovered from the peritoneum of a PBS-injected mouse. Cell numbers for PBS-injected mice ranged from […] to 646,000 cells total; 182,300 to 325,000 CD44^+ cells; 224,000 to 496,000 […] cells; 31,300 to 76,000 B220^+ cells; 18,100 to 21,100 CD3^+ cells), representing the induction of macrophages (Mac-1^+), B cells (B220^+), and T cells (CD3^+). Values represent an average of 6 mice.

[4] = labelled agent in lower chamber, Ab64 in upper chamber
[5] = labelled agent in lower chamber, OPN in upper chamber
[6] = labelled agent in lower chamber, PBS in upper chamber, 2×10^4 cells
[7] = labelled agent in lower chamber, SP64 in upper chamber
[8] = labelled agent in lower chamber, pep 51 in upper chamber
[9] = labelled agent in upper chamber, PBS in lower chamber

Row | Substance | MI inhibitory [1] | MI buffer [2] | chemotactic activity (in words) [2] | Migratory Index [2] | MI [2] | other results
1 | Acetyl-LVLDP (Ac-LVLDP) [pepK″] | 4 | 1 | – | – | – | –
2 | ILVDPK (OTHER INFORMATION: Description of Artificial Sequence:Synthetic Peptide) | – | – | chemotactic activity | – | – | –
3 | ILVVDPK (OTHER INFORMATION: Description of Artificial Sequence:Synthetic Peptide) [pepK′] | – | – | – | 1.0 | – | –
4 | KFHSHKDKLVLDPKSK (OTHER INFORMATION: Description of Artificial Sequence:Synthetic Peptide) [SP64] | 9 | 12 | – | 1 | 1 | mean number of migrating cells per six random high powered fields [2, 4]: 25 cells per six random high powered fields; mean number of migrating cells per six random high powered fields [2, 5]: 66 cells per six random high powered fields; mean number of migrating cells per six random high powered fields [2, 6]: 217 cells per six random high powered fields; mean number of migrating cells per six random high powered fields [2, 7]: 66 cells per six random high powered fields; mean number of migrating cells per six random high powered fields [2, 8]: 97 cells per six random high powered fields; mean number of migrating cells per six random high powered fields [2, 9]: 243 cells per six random high powered fields; chemotactic response of MDA-MB231 (in words) [2]: stimulated the chemotactic response
5 | LELDPK (OTHER INFORMATION: Description of Artificial Sequence:Synthetic Peptide) [pepH] | 10 | 2 | – | 0.3 | 0.3 | –
6 | LLVDPK (OTHER INFORMATION: Description of Artificial Sequence:Synthetic Peptide) | – | – | chemotactic activity | – | – | –
7 | LVIDPK (OTHER INFORMATION: Description of Artificial Sequence:Synthetic Peptide) [pepD] | 9 | 11 | – | 1 | 1 | –
8 | LVLAPK (OTHER INFORMATION: Description of Artificial Sequence:Synthetic Peptide) [pepI] | 9 | 1 | – | 0.1 | 0.1 | –
9 | LVLDEK (OTHER INFORMATION: Description of Artificial Sequence:Synthetic Peptide) [pepE] | 10 | 2 | – | 0.2 | 0.2 | –
10 | LVLDP (OTHER INFORMATION: Description of Artificial Sequence:Synthetic Peptide) [pepG] | 4 | 0 | – | 0.1 | 0.1 | inhibition of chemotaxis by peptide (in words) ([1]; migratory index against peptide 51): inhibits chemotaxis
11 | LVLDPA (OTHER INFORMATION: Description of Artificial Sequence:Synthetic Peptide) [pepK] | – | – | – | 0.1 | – | –
12 | LVLDPK (OTHER INFORMATION: Description of Artificial Sequence:Synthetic Peptide) [peptide 51, chemotactic tryptic peptide of osteopontin] | 10 | 10 | chemotactic | 1 | 1 | induction ratio, Total [3]: 8.6*; induction ratio, Total CD44 [3]: 7.9*; induction ratio, B-lymphocytes [3]: 1.3; induction ratio, T-lymphocytes [3]: 1.3; induction ratio, Monocytes [3]: 7.1*; chemotactic activity in vivo (in words) [3]: chemotactic to macrophages in vivo; mean number of migrating cells per random high power field ([2]; labelled peptide (50 pmols) in lower chamber, PBS in upper chamber, 1×10^3 cells): 68* cells per random high power field; mean number of migrating cells per random high power field ([2]; labelled peptide in lower chamber, peptide 49 in upper chamber): 83* cells per random high power field; mean number of migrating cells per random high power field ([2]; labelled peptide in lower chamber, peptide 50 in upper chamber): 56* cells per random high power field; mean number of migrating cells per random high power field ([2]; labelled peptide in lower chamber, peptide 51 in upper chamber): 32 cells per random high power field; mean number of migrating cells per random high power field ([2]; labelled peptide in lower chamber, peptide 52 in upper chamber): 78* cells per random high power field; mean number of migrating cells per random high power field ([2]; labelled peptide in lower chamber, peptide 53 in upper chamber): 62* cells per random high power field; mean number of migrating cells per random high power field ([2]; labelled peptide in upper chamber, PBS in lower chamber): 13 cells per random high power field; mean number of migrating cells per six random high powered fields [2, 4]: 21 cells per six random high powered fields; mean number of migrating cells per six random high powered fields [2, 5]: 48 cells per six random high powered fields; mean number of migrating cells per six random high powered fields [2, 6]: 248 cells per six random high powered fields; mean number of migrating cells per six random high powered fields [2, 7]: 109 cells per six random high powered fields; mean number of migrating cells per six random high powered fields [2, 8]: 65 cells per six random high powered fields; mean number of migrating cells per six random high powered fields [2, 9]: 6 cells per six random high powered fields; chemotactic response of MDA-MB231 (in words) [2]: stimulated the chemotactic response
13 | LVLEPK (OTHER INFORMATION: Description of Artificial Sequence:Synthetic Peptide) [pepJ] | 9 | 6 | – | 0.6 | 0.6 | –
14 | LVLVPK (OTHER INFORMATION: Description of Artificial Sequence:Synthetic Peptide) [pepA] | – | – | – | 0.2 | – | induction ratio, Total [3]: 1.3; induction ratio, Total CD44 [3]: 1.8; induction ratio, B-lymphocytes [3]: 1; induction ratio, T-lymphocytes [3]: 1.1; induction ratio, Monocytes [3]: 1.2
15 | LVPDPK (OTHER INFORMATION: Description of Artificial Sequence:Synthetic Peptide) [pepB] | 8 | 10 | – | 1 | 1 | –
16 | LVPDSK (OTHER INFORMATION: Description of Artificial Sequence:Synthetic Peptide) [pepC] | 10 | 7 | – | 1 | 1 | –
17 | VDPK (OTHER INFORMATION: Description of Artificial Sequence:Synthetic Peptide) | – | – | retain chemotactic activity | – | – | –
18 | VLDPK (OTHER INFORMATION: Description of Artificial Sequence:Synthetic Peptide) [pepF] | 7 | 6 | – | 0.7 | 0.7 | induction ratio, Total [3]: 4; induction ratio, Total CD44 [3]: 3.1; induction ratio, B-lymphocytes [3]: 1.1; induction ratio, T-lymphocytes [3]: 0.8; induction ratio, Monocytes [3]: 2.8; chemotactic activity in vivo (in words) [3]: chemotactic but exhibited less activity
19 | VLDSK (OTHER INFORMATION: Description of Artificial Sequence:Synthetic Peptide) | – | – | retain chemotactic activity | – | – | –
20 | VVLDPK (OTHER INFORMATION: Description of Artificial Sequence:Synthetic Peptide) | – | – | chemotactic activity | – | – | –
